Test results published in patent US9096560B2, “5-heterocyclylalkyl-3-hydroxy-2-phenylcyclopent-2-enones as herbicides” (Syngenta Limited, priority 2008, dated 2015).

How the values were obtained:
Type in all cases: in vivo
Lolium perenne (LOLPE) [1] = assay: Example B pre-emergence herbicidal test, LOLPE; settings: Lolium perenne, 312 h, rate 250 g/ha, evaluated after 13 days, 100=total damage to plant, 0=no damage to plant
Procedure, shortened: (§1)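 Pots sown, sprayed day 1 pre-emergence; spray: aqueous dilution of formulation in acetone/water 50:50 + 0.5% Tween 20. Glasshouse 24/16° C, 14 h light, 65% RH, watering twice daily. Visual damage rating at 13 d, 0–100 scale.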

[2] = tested on: Alopecurus myosuroides (ALOMY); assay: Example B pre-emergence herbicidal test, ALOMY; settings: Alopecurus myosuroides, 312 h, rate 250 g/ha, evaluated after 13 days, 100=total damage to plant, 0=no damage to plant
Procedure, shortened: as §1

[3] = tested on: Echinochloa crus-galli (ECHCG); assay: Example B pre-emergence herbicidal test, ECHCG; settings: Echinochloa crus-galli, 312 h, rate 250 g/ha, evaluated after 13 days, 100=total damage to plant, 0=no damage to plant
Procedure, shortened: as §1

Avena fatua (AVEFA) [4] = assay: Example B pre-emergence herbicidal test, AVEFA; settings: Avena fatua, 312 h, rate 250 g/ha, evaluated after 13 days, 100=total damage to plant, 0=no damage to plant
Procedure, shortened: as §1

Lolium perenne (LOLPE) [5] = assay: Example B post-emergence herbicidal test, LOLPE; settings: Lolium perenne, 312 h, rate 250 g/ha, evaluated after 13 days, scale 0-100, read-out: Post-emergence activity LOLPE (100=total damage to plant; 0=no damage to plant)
Procedure, shortened: (§2)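 Plants grown from seed in standard soil for 8 days in a glasshouse (24/16 °C day/night, 14 h light, 65% humidity), then sprayed with an aqueous solution from the active ingredient formulated in acetone/water (50:50) with 0.5% Tween 20. Damage scored after 13 days, 0 (none) to 100 (total).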

[6] = tested on: Alopecurus myosuroides (ALOMY); assay: Example B post-emergence herbicidal test, ALOMY; settings: Alopecurus myosuroides, 312 h, rate 250 g/ha, evaluated after 13 days, scale 0-100, read-out: Post-emergence activity ALOMY (100=total damage to plant; 0=no damage to plant)
Procedure, shortened: as §2

[7] = tested on: Echinochloa crus-galli (ECHCG); assay: Example B post-emergence herbicidal test, ECHCG; settings: Echinochloa crus-galli, 312 h, rate 250 g/ha, evaluated after 13 days, scale 0-100, read-out: Post-emergence activity ECHCG (100=total damage to plant; 0=no damage to plant)
Procedure, shortened: as §2

Avena fatua (AVEFA) [8] = assay: Example B post-emergence herbicidal test, AVEFA; settings: Avena fatua, 312 h, rate 250 g/ha, evaluated after 13 days, scale 0-100, read-out: Post-emergence activity AVEFA (100=total damage to plant; 0=no damage to plant)
Procedure, shortened: as §2

Row | SMILES | pest or weed control at 250 g/ha (Lolium perenne (LOLPE) [1]) | pest or weed control at 250 g/ha [2] | pest or weed control at 250 g/ha [3] | pest or weed control at 250 g/ha (Avena fatua (AVEFA) [4]) | pest or weed control at 250 g/ha (Lolium perenne (LOLPE) [5]) | pest or weed control at 250 g/ha [6] | pest or weed control at 250 g/ha [7] | pest or weed control at 250 g/ha (Avena fatua (AVEFA) [8])
1 | Cc1cc(C)c(C2C(=O)CC(C)(CC3CCOC3)C2=O)c(C)c1 (centres unmarked) [Compound T30] | 90% | 60% | 80% | 30% | 80% | 80% | 80% | 70%
2 | Cc1cc(C)c(C2C(=O)C/C(=C\C3CCN(S(C)(=O)=O)C3)C2=O)c(C)c1 (centres unmarked) [Compound T31] | 90% | 80% | 80% | 90% | 70% | 90% | 80% | 90%
3 | COC(=O)N1CCC(/C=C2\CC(=O)C(c3c(C)cc(C)cc3C)C2=O)C1 (centres unmarked) [Compound T32] | 100% | 70% | 100% | 90% | 90% | 90% | 90% | 90%
4 | CCSC(=O)N1CCC(/C=C2\CC(=O)C(c3c(C)cc(C)cc3C)C2=O)C1 (centres unmarked) [Compound T33] | 90% | 60% | 90% | 50% | 60% | 60% | 60% | 70%
5 | Cc1cc(C)c(C2C(=O)C/C(=C\C3CCN(C(=O)c4ccccc4)C3)C2=O)c(C)c1 (centres unmarked) [Compound T34] | 90% | 70% | 100% | 70% | 90% | 90% | 100% | 100%
6 | CC(=O)N1CCC(CC2CC(=O)C(c3c(C)cc(C)cc3C)C2=O)C1 (centres unmarked) [Compound T35] | 70% | 30% | 40% | 10% | 70% | 70% | 70% | 60%
7 | Cc1cc(C)c(C2C(=O)CC(CC3CCN(S(C)(=O)=O)C3)C2=O)c(C)c1 (centres unmarked) [Compound T36] | 90% | 90% | 100% | 90% | 80% | 80% | 90% | 90%
8 | Cc1cc(C)c(C2C(=O)CC(C(O)C3CCOC(C)(C)C3)C2=O)c(C)c1 (centres unmarked) [Compound T38] | 70% | 90% | 100% | 40% | 100% | 100% | 100% | 100%
9 | Cc1cc(C)c(C2C(=O)C/C(=C\C3CCN(C(=O)OCc4ccccc4)CC3)C2=O)c(C)c1 (centres unmarked) [Compound T42] | 0% | 0% | 20% | 0% | 20% | 0% | 30% | 0%
10 | COC(=O)N1CCC(CC2CC(=O)C(c3c(C)cc(C)cc3C)C2=O)C1 (centres unmarked) [Compound T43] | 100% | 80% | 100% | 100% | 100% | 90% | 80% | 90%
11 | CCC1CCC(CC2CC(=O)C(c3c(C)cc(C)cc3C)C2=O)O1 (centres unmarked) [Compound T44] | 100% | 90% | 60% | 20% | 70% | 60% | 80% | 40%
12 | CC(=O)N1CCCCC1/C=C1\CC(=O)C(c2c(C)cc(C)cc2C)C1=O (centres unmarked) [Compound T46] | 10% | 50% | 10% | 10% | 40% | 60% | 60% | 50%
13 | Cc1cc(C)c(C2C(=O)C/C(=C\C3CCCCN3S(C)(=O)=O)C2=O)c(C)c1 (centres unmarked) [Compound T47] | 60% | 20% | 40% | 50% | 30% | 30% | 60% | 50%
14 | CC(=O)N1CCCCC1CC1CC(=O)C(c2c(C)cc(C)cc2C)C1=O (centres unmarked) [Compound T48] | 90% | 90% | 100% | 90% | 70% | 90% | 100% | 90%
15 | CCc1cc(C)cc(C)c1C1C(=O)CC(CC2CCOCC2)C1=O (centres unmarked) [Compound T50] | 100% | 100% | 100% | 100% | 100% | 100% | 100% | 100%
16 | Cc1cc(C)c(C2C(=O)CC(CC3CCCCN3S(C)(=O)=O)C2=O)c(C)c1 (centres unmarked) [Compound T51] | 100% | 80% | 80% | 90% | 60% | 70% | 70% | 80%
17 | Cc1cccc(C)c1C1C(=O)CC(CC2CCOCC2)C1=O (centres unmarked) [Compound T52] | 100% | 100% | 80% | 80% | 90% | 90% | 100% | 80%
18 | Cc1cc(C)c(C2C(=O)C/C(=C\C3CCN(C(=O)OC(C)(C)C)CC3)C2=O)c(C)c1 (centres unmarked) [Compound T54] | 100% | 80% | 100% | 50% | 70% | 80% | 80% | 80%
19 | Cc1cc(C)c(C2C(=O)CC(CC3CCN(C(=O)OC(C)(C)C)CC3)C2=O)c(C)c1 (centres unmarked) [Compound T55] | 100% | 80% | 90% | 60% | 60% | 70% | 70% | 50%
20 | CCc1cc(C)cc(C)c1C1C(=O)CC(CCC2CCOCC2)C1=O (centres unmarked) [Compound T58] | 100% | 90% | 100% | 90% | 90% | 100% | 100% | 90%
21 | CCc1cc(C)cc(C)c1C1C(=O)C/C(=C\C2CCOC2)C1=O (centres unmarked) [Compound T59] | 100% | 90% | 100% | 90% | 100% | 90% | 90% | 100%
22 | Cc1cc(C)c(C2C(=O)CC(CC3CCN(c4ccc(Cl)cc4)CC3)C2=O)c(C)c1 (centres unmarked) [Compound T60] | 10% | 10% | 0% | 0% | 20% | 30% | 10% | 10%
